Measured values: patent publication US11649222B2, “Compounds” (UNIVERSITETET I OSLO, priority 2016, dated 2023)
Where two headings read alike, the source gives them in different places. Marks after values point to notes of the source that are not given here.

How the values were obtained:
Assay type in all cases: cell-based
[1] = tested on: K. pneumoniae 50732159 (No MBL); assay: Microbroth dilution MIC of meropenem with/without inhibitor; conditions: inhibitor 25 mg/L
Protocol: (§1) • Plate bacterial strain(s) on appropriate media: • Gram-negative bacteria with ESBLs or carbapenemases: green agar plates with 100 mg/L ampicillin • Gram-negative bacteria without β-lactamases: green agar plates • Gram-positive bacteria (Staphylococci and Enterococci): blood agar plates • Incubate o.n. at 37° C. […] (Should be used within 15 min of preparation). • Dilute the 0.5 McFarland suspension 1:100 into MH broth. […] Plate 10 μl of the dilution on MH agar plates (×2). Incubate o.n. at 37° C., count the colonies and calculate the final CFU/ml inoculum in the plate by multiplying the average number of colonies with 10000 and divide by 2. The final inoculum should be between 3-7×10^5 CFU/ml. • Add 50 μl of the prepared bacterial suspension to each well in the microtiter plate except negative growth control. Preparation of Compounds/Antibiotics • Calculate the desired concentration-range and volume of the compounds/antibiotics in the assay. […] Dilute the stock solution in MH broth. Make subsequent 2-fold dilutions in MH broth of the desired concentrations if a concentration range is to be tested (remember the extra dilution factor in the assay plate). Always include extra volume for pipetting. Take into consideration stock solutions that are made in buffers that have an effect on bacterial growth (e.g. DMSO).

[2] = tested on: P. aeruginosa 50808021 (No MBL); assay: as above; conditions: inhibitor 25 mg/L
Protocol: as §1

[3] = tested on: resistant gram-negative MBL-based bacteria; assay: MICx: adjuvant concentration giving carbapenem MIC ≤ 2 mg/L
Protocol: as §1

human hepG2 cells = assay: In vitro toxicity in human hepG2 cells (AlamarBlue viability)
Protocol: For viability assays, cells were seeded in white 96-well Nunclon plates at a density of 20,000 cells/well and left overnight to adhere before experiments were conducted. Zn chelators dissolved in DMSO were added to white 96-well plates containing 20000 HepG2 cells/well at concentrations ranging from 1 to 1×10^−6 mM (max DMSO concentration never exceeded 1%) and incubated for 24 hours at 37° C. After 24 hours, AlamarBlue® cell viability reagent (Thermo Fisher, Carlsbad, USA) was added (10% final concentration) and incubated for 4 hours at 37° C.

[4] = tested on: K. pneumoniae K66-45 (NDM-1); assay: Microbroth dilution MIC of carbapenem with/without inhibitor; conditions: for Meropenem activity in presence of inhibitor: inhibitor 63 mg/L; for MIC: Klebsiella pneumoniae
Protocol: as §1

[5] = tested on: P. aeruginosa K34-7 (VIM-2); assay: as above; conditions: for Meropenem activity in presence of inhibitor: inhibitor 63 mg/L; for Meropenem activity (MIC) in presence of inhibitor: inhibitor 25 mg/L
Protocol: as §1

[6] = tested on: P. aeruginosa 50692172 (NDM-1); assay: Microbroth dilution MIC of meropenem with/without inhibitor
Protocol: as §1

K. pneumoniae K66-45 = conditions: inhibitor 25 mg/L
Protocol: After plating and grown overnight at 37° C., only single colonies, ignoring any touching the edges of the plate, were counted.
10^9 CFU K66-45 (Mueller-Hinton broth, no selection) was plated and grown overnight, 37° C. Only single colonies, ignoring any touching the edges of the plate, were counted.

[7] = lowest concentration of compound X that results in a MIC value of ≤ 2 mg/L for carbapenem antibiotics
[8] = human hepG2 cells, 24 hours, AlamarBlue, 8 replicates, read-out: IC50
[9] = human hepG2 cells, read-out: IC50h

Row | SMILES | Meropenem activity in presence of inhibitor [1] [mg/L] | Meropenem activity in presence of inhibitor [2] [mg/L] | MICx [3, 7] | IC50 (human hepG2 cells; [8]) [µM] | IC50 (human hepG2 cells; [9]) [µM] | also measured
1 | O=C(Cc1ccc(NC(=O)c2ccc(CN(Cc3ccccn3)Cc3ccccn3)nc2)cc1)NC(CO)(CO)CO [Example 100, 6-((bis(pyridin-2-ylmethyl)amino)methyl)-N-(4-(2-(1,3-dihydroxy-2-(hydroxymethyl)propan-2-ylamino)-2-oxoethyl)phenyl)nicotinamide] | 32 | >64 | 31 µM | > 100 | 118 | –
2 | CC(=O)OC[C@H]1OC(OC(C)=O)[C@H](NC(=O)Cc2ccc(NC(=O)CN(CCN(Cc3ccccn3)Cc3ccccn3)Cc3ccccn3)cc2)[C@@H](OC(C)=O)[C@@H]1OC(C)=O (stereo partly drawn) [Example 22a, (3R,4R,5S,6R)-6-(acetoxymethyl)-3-(2-(4-(2-((2-(bis(pyridin-2-ylmethyl)amino)ethyl)(pyridin-2-ylmethyl)amino)acetamido)phenyl)acetamido) tetrahydro-2H-pyran-2,4,5-triyltriacetate] | – | – | – | – | – | Meropenem activity in presence of inhibitor ([4]; K. pneumoniae K66-45 NDM-1): 0.25 mg/L; Meropenem activity in presence of inhibitor [5]: 1 mg/L
3 | C[C@H](CS)C(=O)N1CCC[C@H]1C(=O)O [Captopril, reference compound] | – | – | > 1000^d μM | – | 33 | Meropenem activity in presence of inhibitor ([4]; K. pneumoniae K66-45 NDM-1): 64 mg/L; Meropenem activity in presence of inhibitor [5]: 32 mg/L; Meropenem activity in presence of inhibitor ([6]; inhibitor 63 mg/L): 32 to 64 mg/L
4 | COC(=O)[C@@H](C)NC(=O)[C@@H](C)NC(=O)Cn1cc(CN(Cc2ccccn2)Cc2ccccn2)nn1 [Example 194, Methyl (2-(4-((bis(pyridin-2-ylmethyl)amino)methyl)1H-1,2,3-triazol-1-yl)acetyl)-D-alanyl-D-alaninate, reference compound] | 32 | >64 | – | – | – | Meropenem activity in presence of inhibitor ([6]; inhibitor 25 mg/L): 32 mg/L; RF - no of colonies (K. pneumoniae K66-45; MEM 1 mg/L): tntc (tntc = too numerous to count, plates containing either confluent growth or >1000 colonies); RF - no of colonies (K. pneumoniae K66-45; MEM 2 mg/L): tntc (tntc = too numerous to count, plates containing either confluent growth or >1000 colonies); RF - no of colonies (K. pneumoniae K66-45; MEM 4 mg/L): tntc (tntc = too numerous to count, plates containing either confluent growth or >1000 colonies); RF - no of colonies (K. pneumoniae K66-45; MEM 8 mg/L): tntc (tntc = too numerous to count, plates containing either confluent growth or >1000 colonies)
5 | CN(C[C@H](O)[C@@H](O)[C@H](O)[C@H](O)CO)C(=O)Cc1ccc(NC(=O)c2ccc(CN(Cc3ccccn3)Cc3ccccn3)nc2)cc1 [Example 99, 6-((bis(pyridin-2-ylmethyl)amino)methyl)-N-(4-(2-(methyl((2S,3R,4R,5R)-2,3,4,5,6-pentahydroxyhexyl)amino)-2-oxoethyl)phenyl)nicotinamide] | 32 | >64 | 31 µM | 217 | 217 | –
6 | O=C(Cc1ccc(NC(=O)CN(CCN(Cc2ccccn2)Cc2ccccn2)Cc2ccccn2)cc1)NC[C@@H](O)CO [Example 23, (R)-2-((2-(bis(pyridin-2-ylmethyl)amino)ethyl)(pyridin-2-ylmethyl)amino)-N-(4-(2-(2,3-dihydroxypropylamino)-2-oxoethyl)phenyl)acetamide] | 32 | >64 | – | – | – | Meropenem activity (MIC) in presence of inhibitor [5]: 1 µg/mL; Meropenem activity in presence of inhibitor ([6]; inhibitor 25 mg/L): 1 mg/L
7 | O=C(CN(CCN(Cc1ccccn1)Cc1ccccn1)Cc1ccccn1)Nc1ccc(CCNC(=O)c2cnccn2)cc1 [Example 27, N-(4-(2-((2-(bis(pyridin-2-ylmethyl)amino)ethyl)(pyridin-2-ylmethyl)amino)acetamido)phenethyl)pyrazine-2-carboxamide] | – | – | – | – | – | Meropenem activity in presence of inhibitor ([4]; K. pneumoniae K66-45 NDM-1): 0.125 mg/L; Meropenem activity in presence of inhibitor [5]: 1 mg/L
8 | O=C(c1ccc(CN(Cc2ccccn2)Cc2ccccn2)nc1)N1CCNCC1 [Example 105, (6-((bis(pyridin-2-ylmethyl)amino)methyl)pyridin-3-yl)(piperazin-1-yl)methanone] | – | – | 31 µM | ~210 | – | IC50 (human hepG2 cells; Homo sapiens, HepG2, estimated values (footnote c), read-out: IC50h): 100 µM
9 | OC[C@H]1OC(O)[C@H](n2cc(CN(Cc3ccccn3)Cc3ccccn3)nn2)[C@@H](O)[C@@H]1O (stereo partly drawn) [Example 84, (3R,4R,5S,6R)-3-(4-((bis(pyridin-2-ylmethyl)amino)methyl)-1H-1,2,3-triazol-1-yl)-6-(hydroxymethyl)tetrahydro-2H-pyran-2,4,5-triol] | – | – | 125 µM | > 1000 | 116 | –
10 | CN(C[C@H](O)[C@@H](O)[C@H](O)[C@H](O)CO)C(=O)Cc1ccc(NC(=O)CN(CCN(Cc2ccccn2)Cc2ccccn2)Cc2ccccn2)cc1 [Example 25, 2-(4-(2-((2-(bis(pyridin-2-ylmethyl)amino)ethyl)(pyridin-2-ylmethyl)amino)acetamido)phenyl)-N-methyl-N-(2,3,4,5,6-pentahydroxyhexyl)acetamide] | 64 | >64 | 31 µM | 113 | 113 | MIC ([4]; inhibitor 31.25 μM, 50 μM and 100 μM, K. pneumoniae K66-45, read-out: MIC of MEM in the presence of inhibitor): 0.125 µg/mL; Meropenem activity (MIC) in presence of inhibitor [5]: 2 µg/mL; Meropenem activity in presence of inhibitor ([6]; inhibitor 25 mg/L): 2 mg/L; RF - no of colonies (K. pneumoniae K66-45; MEM 1 mg/L): 64 colonies
11 | CCOCCOCCOCCN(CCN(Cc1ccccn1)Cc1ccccn1)Cc1ccccn1 [Example 9, N1-(2-(2-(2-ethoxyethoxy)ethoxy)ethyl)-N1,N2,N2-tris(pyridin-2-ylmethyl)ethane-1,2-diamine] | – | – | – | – | – | Meropenem activity in presence of inhibitor ([4]; K. pneumoniae K66-45 NDM-1): ≤0.5 mg/L; Meropenem activity in presence of inhibitor [5]: ≤0.5 mg/L
12 | C[C@@H](O)[C@H]1C(=O)N2C(C(=O)O)=C(S[C@@H]3CN[C@H](CNS(N)(=O)=O)C3)[C@H](C)[C@H]12 [doripenem, reference compound] | – | – | – | – | – | MIC ([4]; K. pneumoniae K66-45 NDM-1, read-out: MIC of doripenem alone): > 64 µg/mL; MIC ([5]; Pseudomonas aeruginosa, read-out: MIC of doripenem alone): 64 µg/mL
13 | OC1O[C@H](Cn2cc(CN(CCN(Cc3ccccn3)Cc3ccccn3)Cc3ccccn3)nn2)[C@H](O)[C@H](O)[C@H]1O (stereo partly drawn) [Example 91] | – | – | 31 µM | 165 | 165 | –
14 | CN[C@H](CC(C)C)C(=O)N[C@H]1C(=O)N[C@@H](CC(N)=O)C(=O)N[C@H]2C(=O)N[C@H]3C(=O)N[C@H](C(=O)N[C@H](C(=O)O)c4cc(O)cc(O)c4-c4cc3ccc4O)[C@H](O)c3ccc(c(Cl)c3)Oc3cc2cc(c3O[C@@H]2O[C@H](CO)[C@@H](O)[C@H](O)[C@H]2O[C@H]2C[C@](C)(N)[C@H](O)[C@H](C)O2)Oc2ccc(cc2Cl)[C@H]1O [Vancomycin, reference compound] | – | – | – | – | – | MICx [3]: > 1000^d μM; IC50 (human hepG2 cells; Homo sapiens, HepG2, read-out: IC50h): 20 µM
15 | O=C(Cc1ccc(-n2cc(CN(Cc3ccccn3)Cc3ccccn3)nn2)cc1)NC(CO)(CO)CO [Example 98, 2-(4-(4-((bis(pyridin-2-ylmethyl)amino)methyl)-1H-1,2,3-triazol-1-yl)phenyl)-N-(1,3-dihydroxy-2-(hydroxymethyl)propan-2-yl)acetamide] | – | – | 125 µM | 259 | 259 | –
